Results: patent US10703756B2, “Pyrrolo[2,3-D]pyrimidinyl, pyrrolo[2,3-B]pyrazinyl, pyrrolo[2,3-B]pyridinyl acrylamides and epoxides thereof” (Pfizer Inc., priority 2015, dated 2020)
Read-outs that look alike come from different tables or passages of the source.

Columns and labels:
JAK3 enzyme [1] = biological target: T1, JAK3 enzyme (Homo sapiens, UniProt P52333); assay: JAK Caliper Enzyme Assay at 1 mM ATP; format: biochemical
T1 sequence (P52333 1-1124): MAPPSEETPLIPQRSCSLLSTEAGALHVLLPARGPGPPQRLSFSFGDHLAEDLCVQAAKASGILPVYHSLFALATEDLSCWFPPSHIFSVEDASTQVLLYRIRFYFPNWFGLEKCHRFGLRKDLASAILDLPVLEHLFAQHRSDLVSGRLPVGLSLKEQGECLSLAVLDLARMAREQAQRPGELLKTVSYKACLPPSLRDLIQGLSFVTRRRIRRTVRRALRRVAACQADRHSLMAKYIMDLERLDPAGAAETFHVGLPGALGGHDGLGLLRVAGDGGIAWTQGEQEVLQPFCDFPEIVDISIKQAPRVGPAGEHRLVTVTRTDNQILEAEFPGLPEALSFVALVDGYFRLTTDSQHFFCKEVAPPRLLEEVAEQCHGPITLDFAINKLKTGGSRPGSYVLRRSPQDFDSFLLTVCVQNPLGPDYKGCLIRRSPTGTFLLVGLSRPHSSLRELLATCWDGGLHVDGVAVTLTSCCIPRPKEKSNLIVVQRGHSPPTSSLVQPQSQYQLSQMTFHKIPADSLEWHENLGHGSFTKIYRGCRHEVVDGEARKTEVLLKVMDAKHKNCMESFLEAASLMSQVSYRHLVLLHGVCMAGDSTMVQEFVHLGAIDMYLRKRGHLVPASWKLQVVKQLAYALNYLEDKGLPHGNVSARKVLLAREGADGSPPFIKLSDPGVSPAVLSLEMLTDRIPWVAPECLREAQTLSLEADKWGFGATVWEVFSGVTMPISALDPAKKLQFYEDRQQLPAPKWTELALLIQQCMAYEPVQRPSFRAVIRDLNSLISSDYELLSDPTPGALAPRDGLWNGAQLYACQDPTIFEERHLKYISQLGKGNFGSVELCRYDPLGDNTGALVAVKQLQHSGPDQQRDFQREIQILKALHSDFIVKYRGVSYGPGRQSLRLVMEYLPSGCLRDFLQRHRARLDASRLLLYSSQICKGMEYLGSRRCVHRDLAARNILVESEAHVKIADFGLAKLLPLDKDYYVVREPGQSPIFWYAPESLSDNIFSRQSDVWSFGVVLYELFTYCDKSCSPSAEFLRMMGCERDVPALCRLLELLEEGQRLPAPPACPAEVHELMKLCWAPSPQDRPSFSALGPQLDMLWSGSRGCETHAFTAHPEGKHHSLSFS
Procedure, shortened: (§1)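 Peptide phosphorylation by the kinase, adjusted to 20%-30% conversion, is measured by microfluidic separation of substrate and product on a Caliper LC3000. Compounds run as 11-point half-log series from a 600 μM DMSO top concentration.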

[2] = Stability of JAK3 Covalent Inhibitors in Human Whole Blood; format: in vitro ADME; details: 1 μM test compound, 37° C., 180 min incubation; for half-life at 1 μM: both sexes, read-out: Human blood stability t1/2
Method: Stability of JAK3 Covalent Inhibitors in Rat and Human Whole Blood
Rat blood was collected from 3 male Sprague-Dawley rats (200-250 g, Charles River Laboratories) and pooled for each study. Human blood was collected from healthy subjects at the Occupational Health & Wellness Center at Pfizer, Groton, Conn. and pooled for each study. Both rat and human blood was collected freshly into K2-EDTA tubes and kept on ice. An aliquot of the blood was transferred to microtubes and pre-warmed for 10 min at 37° C. using a heat block. The test compound was then added (1 μM final concentration) and the incubation was continued for 180 min at 37° C. in duplicates. An aliquot of the incubation mixture was removed at designated time points during the course of the incubation, mixed with an aliquot of acetonitrile containing an internal standard, vortexed and centrifuged. The resulting supernatants were removed and subjected to LC-MS/MS analyses to determine parent compound concentrations. Peak area ratios of the parent compound vs the internal standard were used to determine the % of parent compound remaining vs incubation time.

[3] = system: IL-15 induced P-STAT5 in human PBMC; assay: PBMC IL-15 Induced P-STAT5; format: cell-based
Procedure, shortened: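 Flow cytometry gated on total lymphocytes measured STAT5 staining (Alexa Fluor 647 antibody, overnight, 4 °C) in fixed, methanol-permeabilised human PBMC. Cells had received compound for 15 min at 37 °C (0.2% DMSO final), followed by 41 ng/mL final human IL-15 for 15 min.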

JAK3 enzyme [4] = biological target: T1, JAK3 enzyme; assay: JAK Caliper Enzyme Assay at 4 μM ATP; format: biochemical
Procedure, shortened: as §1

[5] = human PBMC, IL-15 final 41 ng/mL, read-out: PBMC IL15_pSTAT5_IC50

SMILES | IC50 (JAK3 enzyme [1]) [nM] | half-life at 1 μM [2] [h] | IC50 (JAK3 enzyme [4]) [nM] | IC50 [3, 5] [nM] | IC50 ([3]; Homo sapiens, PBMC, read-out: PBMC IL15_pSTAT5_IC50 (nM)) [nM] | Human blood stability t1/2 [2] [h]
C=CC(=O)N1C[C@@H](Nc2cnc3[nH]cc(C(=O)N[C@@H](C)COC)c3n2)CC[C@H]1C (single isomer, unassigned) [Example 67] | 25 | > 6 | 0.511 | 439 |  | 
C=CC(=O)N1CC[C@H](Nc2cnc3[nH]cc(C(=O)N[C@@H](C)COC)c3n2)C[C@@H]1C (relative stereo) [Example 55, 2-{[(2S,4S)-1-acryloyl-2-methylpiperidin-4-yl]amino}-N-[(2S)-1-methoxypropan-2-yl]-5H-pyrrolo[2,3-b]pyrazine-7-carboxamide] | 192 | > 6 | 2.21 |  | 2260 | 
C=CC(=O)N1C[C@@H](Nc2ncnc3[nH]ccc23)CC[C@@H]1[C@@H](C)O (single isomer, unassigned) [Example 111] | 77 | 2.87 | 0.858 | 537 |  | 
C=CC(=O)N1C[C@H](Nc2ncnc3[nH]ccc23)C[C@H](O)[C@@H]1C [Example 133] | 76 |  | 1.11 | 302 |  | 3.97
C=CC(=O)N1C[C@@H](O)C[C@@H](Nc2ncnc3[nH]cc(C#N)c23)C1 [Example 113, 4-{[(3R,5S)-1-Acryloyl-5-hydroxypiperidin-3-yl]amino}-7H-pyrrolo[2,3-d]pyrimidine-5-carbonitrile] | 589 | > 6 | 2.4 | 1940 |  | 
C=CC(=O)N1CCN(c2cnc3[nH]cc(C(=O)NC(C)COC)c3n2)CC1(C)C (racemic) [Example 148, Racemic-2-(4-acryloyl-3,3-dimethylpiperazin-1-yl)-N-(1-methoxypropan-2-yl)-5H-pyrrolo[2,3-b]pyrazine-7-carboxamide] | 111 | > 6 | 0.773 | 312 |  | 
C=CC(=O)N1CCC(Oc2cnc3[nH]cc(-c4ncnn4C(C)C)c3n2)CC1 [Example 123] | 1100 | 2.45 | 7.65 | 3040 |  | 
C=CC(=O)N1CC[C@H](Oc2cnc3[nH]cc(C(=O)N[C@@H](C)COC)c3n2)C1 [Example 52, 2-{[(3S)-1-acryloylpyrrolidin-3-yl]oxy}-N-[(2S)-1-methoxypropan-2-yl]-5H-pyrrolo[2,3-b]pyrazine-7-carboxamide] | 153 | 2.78 | 1.02 | 627 |  | 
C=CC(=O)N1C[C@@H](COCCC#N)C[C@@H](Nc2ncnc3[nH]ccc23)C1 (single isomer, unassigned) [Example 100] | 2660 |  | 76.3 | > 10000 |  | 3.52
C=CC(=O)N1CC[C@H](Oc2cnc3[nH]cc(C(=O)N[C@@H](C)COC)c3n2)C[C@H]1C (single isomer, unassigned) [Example 72] | 80 | 2.77 | 1.13 | 415 |  | 
C=CC(=O)N1CCC[C@H](Oc2cnc3[nH]cc(C(=O)N[C@@H](C)COC)c3n2)C1 [Example 50, 2-{[(3S)-1-acryloylpiperidin-3-yl]oxy}-N-[(2S)-1-methoxypropan-2-yl]-5H-pyrrolo[2,3-b]pyrazine-7-carboxamide] | 91 | > 6 | 1.09 | 431 |  | 
C=CC(=O)N1C[C@@H](Oc2cnc3[nH]cc(C(=O)N[C@@H](C)COC)c3n2)CC[C@H]1C (racemic) [Example 80, Cis-racemic-2-{[1-acryloyl-6-methylpiperidin-3-yl]oxy}-N-[(2S)-1-methoxypropan-2-yl]-5H-pyrrolo[2,3-b]pyrazine-7-carboxamide] | 160 | 4.8 | 1.32 | 829 |  | 

Continued, in another order:

IC50 (JAK3 enzyme [1]) [nM] | half-life at 1 μM [2] [h] | IC50 (JAK3 enzyme [4]) [nM] | SMILES | IC50 [3, 5] [nM] | IC50 ([3]; Homo sapiens, PBMC, read-out: PBMC IL15_pSTAT5_IC50 (nM)) [nM] | Human blood stability t1/2 [2] [h]
56 | 4.32 | 0.25 | C=CC(=O)N1CCC(Nc2cnc3[nH]cc(C(=O)NCCCC(F)(F)F)c3n2)C1 (stereo in doubt) [Example 237, 2-{[(3S)-1-acryloylpyrrolidin-3-yl]amino}-N-(4,4,4-trifluorobutyl)-5H-pyrrolo[2,3-b]pyrazine-7-carboxamide] | 780 |  | 
314 | > 6 | 1.83 | C=CC(=O)N1CC[C@H](Oc2cnc3[nH]cc(C(=O)NCC)c3n2)C[C@H]1C (single isomer, unassigned) [Example 78] | 935 |  | 
37 | 5.78 | 0.304 | C=CC(=O)N1CC[C@H](Nc2cnc3[nH]cc(C(=O)NCCC(F)(F)F)c3n2)C1 [Example 235, 2-{[(3S)-1-acryloylpyrrolidin-3-yl]amino}-N-(3,3,3-trifluoropropyl)-5H-pyrrolo[2,3-b]pyrazine-7-carboxamide] | 208 |  | 
137 | > 6 | 0.782 | C=CC(=O)N1C[C@H](Nc2cnc3[nH]cc(C(=O)N[C@H](C)COC)c3n2)CC[C@@H]1C (single isomer, unassigned) [Example 69] | 2610 |  | 
85 | 5.35 | 0.322 | C=CC(=O)N1CC[C@H](Nc2cnc3[nH]cc(C(=O)NCC(F)(F)F)c3n2)C1 [Example 231, 2-{[(3S)-1-acryloylpyrrolidin-3-yl]amino}-N-(2,2,2-trifluoroethyl)-5H-pyrrolo[2,3-b]pyrazine-7-carboxamide] | 353 |  | 
53 | > 6 | 1.02 | C=CC(=O)N1C[C@@H](Nc2cnc3[nH]cc(C(=O)N[C@@H](C)COC)c3n2)CC[C@H]1C (racemic) [Example 65, Cis-racemic-2-{[1-acryloyl-6-methylpiperidin-3-yl]amino}-N-[(2S)-1-methoxypropan-2-yl]-5H-pyrrolo[2,3-b]pyrazine-7-carboxamide] | 585 |  | 
23 | 4.58 | 0.124 | C=CC(=O)N1CCC(Nc2cnc3[nH]cc(C(=O)NCC(C)C)c3n2)C1 (stereo in doubt) [Example 256, 2-{[(3S)-1-acryloylpyrrolidin-3-yl]amino}-N-(2-methylpropyl)-5H-pyrrolo[2,3-b]pyrazine-7-carboxamide] | 531 |  | 
202 | > 6 | 1.01 | C=CC(=O)N1CC[C@H](Nc2cnc3[nH]cc(C(=O)NCC)c3n2)[C@H](C)C1 (single isomer, unassigned) [Example 39] | 2380 |  | 
47 | 4.9 | 0.211 | C=CC(=O)N1CC[C@H](Nc2cnc3[nH]cc(C(=O)NCC)c3n2)[C@@H](O)C1 (racemic) [Example 31, Trans-racemic-2-{[(3S,4S)-1-acryloyl-3-hydroxypiperidin-4-yl]amino}-N-ethyl-5H-pyrrolo[2,3-b]pyrazine-7-carboxamide] | 3870 |  | 
